In patent publication US4820713A, “Ketoalkanol esters of dihydrolysergic acid useful as 5HT receptor antagonists” (Eli Lilly and Company, priority 1988, dated 1989):
Where a name gives a salt, the structure may show the parent alone.

What was measured:
5HT2 receptors [1] = target: T1, 5HT2 receptors (Rattus norvegicus, UniProt P14842); test: Apparent antagonist dissociation constant (-log KB) versus serotonin-induced contraction of isolated rat jugular vein; set-up: species or system male Wistar rats; settings: antagonist incubated one hour, 37° C., maleate salt, read-out: 5HT2 -Log Kb ± S.E. (converted)
T1 construct: external jugular veins and thoracic aortas dissected free of connective tissue; from tissue; host or cells: external jugular vein of male Wistar rats
Experimental: An initial optimum resting force of 1 and 4 g was applied to the jugular vein and aorta, respectively. […] Exp. Ther., 205, 400 (1978). Alpha receptor antagonist activity was evaluated in the aorta.

blood pressure = settings: in humans; ketanserin; cited from earlier work
5HT2 receptors [2] = settings: cited from earlier work
[3] = system: vascular alpha adrenergic receptors; settings: in words; Cohen I; cited from earlier work
dopaminergic receptors = settings: in words; Cohen I; cited from earlier work
histaminergic receptors = settings: in words; Cohen I; cited from earlier work
5HT2 receptors [4] = settings: in words; cited from earlier work

T1 sequence (P14842 whole entry): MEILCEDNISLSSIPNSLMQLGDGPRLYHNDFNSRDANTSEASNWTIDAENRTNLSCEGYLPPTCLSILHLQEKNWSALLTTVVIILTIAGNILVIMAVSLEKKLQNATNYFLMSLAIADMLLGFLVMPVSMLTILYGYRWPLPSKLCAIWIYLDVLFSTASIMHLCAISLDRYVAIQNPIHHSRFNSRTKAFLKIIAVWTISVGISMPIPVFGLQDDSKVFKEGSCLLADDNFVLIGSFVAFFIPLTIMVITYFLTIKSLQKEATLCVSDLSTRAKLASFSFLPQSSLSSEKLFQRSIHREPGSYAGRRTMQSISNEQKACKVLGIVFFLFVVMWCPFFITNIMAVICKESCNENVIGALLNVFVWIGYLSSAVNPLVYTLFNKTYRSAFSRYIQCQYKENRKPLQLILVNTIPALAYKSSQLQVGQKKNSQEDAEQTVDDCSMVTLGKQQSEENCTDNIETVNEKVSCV

CC(=O)[C@@H](C)OC(=O)[C@@H]1C[C@@H]2c3cccc4c3c(cn4C(C)C)C[C@H]2N(C)C1 [RCH(CH3)COCH3, R-1-methyl-2-oxopropyl 1-isopropyl-9,10-dihydrolysergate maleate]
Kb (5HT2 receptors [1]): 0.355 nM

O=C(c1ccc(F)cc1)C1CCN(CCn2c(=O)[nH]c3ccccc3c2=O)CC1 [ketanserin]
lower blood pressure (blood pressure): lower blood pressure in humans

CC(O)C(C)OC(=O)[C@@H]1C[C@@H]2c3cccc4c3c(cn4C(C)C)C[C@H]2N(C)C1 (stereo partly drawn) [LY53857, 1-isopropyl-6-methyl-8β-(1-methyl-2-hydroxy)propoxycarbonyl-5R-ergoline]
Kd (5HT2 receptors [2]; Cohen et al. J.P.E.T., 227, 327 (1983), read-out: Kdissoc. (5HT2 receptors)): ~0.1 nM | antagonism of vascular contraction to serotonin (5HT2 receptors [2]; effect mediated by 5HT2 receptors, Cohen I): potent antagonist of vascular contraction to serotonin | affinity for vascular alpha adrenergic receptors [3]: minimal affinity | affinity for dopaminergic receptors (dopaminergic receptors): minimal affinity | affinity for histaminergic receptors (histaminergic receptors): minimal affinity | peripheral serotonin antagonist activity, ranking among Garbrecht compounds (5HT2 receptors [4]): most active peripheral serotonin antagonist

CC(=O)[C@H](C)OC(=O)[C@@H]1C[C@@H]2c3cccc4c3c(cn4C(C)C)C[C@H]2N(C)C1 [SCH(CH3)COCH3, S-1-methyl-2-oxopropyl 1-isopropyl-9,10-dihydrolysergate]
Kb (5HT2 receptors [1]): 0.269 nM
